Test results reported in PubChem BioAssay (NCI).
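In this assay, cells in 96-well plates receive the compound at five concentrations for 48 hours. Endpoints are linearly interpolated between the surrounding concentrations. At the TGI there is no net growth.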

How the values were obtained:
Assay in all cases: inhibition of tumour cell growth, NCI panel, 48 h
786-0 renal = tested on: 786-0 renal
A498 renal = tested on: A498 renal
A549 NSCLC = tested on: A549 NSCLC
ACHN renal = tested on: ACHN renal
BT-549 breast = tested on: BT-549 breast
CAKI-1 renal = tested on: CAKI-1 renal
COLO 205 colon = tested on: COLO 205 colon
DU-145 prostate = tested on: DU-145 prostate
EKVX NSCLC = tested on: EKVX NSCLC
HCT-116 colon = tested on: HCT-116 colon
HCT-15 colon = tested on: HCT-15 colon
HL-60(TB) leukemia = tested on: HL-60(TB) leukemia
HOP-62 NSCLC = tested on: HOP-62 NSCLC
HOP-92 NSCLC = tested on: HOP-92 NSCLC
HS 578T breast = tested on: HS 578T breast
HT29 colon = tested on: HT29 colon
IGROV1 ovarian = tested on: IGROV1 ovarian
K-562 leukemia = tested on: K-562 leukemia
KM12 colon = tested on: KM12 colon
LOX IMVI melanoma = tested on: LOX IMVI melanoma
M14 melanoma = tested on: M14 melanoma
MALME-3M melanoma = tested on: MALME-3M melanoma
MCF7 breast = tested on: MCF7 breast
MDA-MB-231 breast = tested on: MDA-MB-231 breast
MDA-MB-435 = tested on: MDA-MB-435
MDA-N = tested on: MDA-N
MOLT-4 leukemia = tested on: MOLT-4 leukemia
NCI-H226 lung = tested on: NCI-H226 lung
NCI-H23 lung = tested on: NCI-H23 lung
NCI-H460 lung = tested on: NCI-H460 lung
NCI-H522 lung = tested on: NCI-H522 lung
NCI/ADR-RES ovarian = tested on: NCI/ADR-RES ovarian
OVCAR-4 ovarian = tested on: OVCAR-4 ovarian
OVCAR-5 ovarian = tested on: OVCAR-5 ovarian
OVCAR-8 ovarian = tested on: OVCAR-8 ovarian
PC-3 prostate = tested on: PC-3 prostate
RXF 393 renal = tested on: RXF 393 renal
SF-268 CNS = tested on: SF-268 CNS
SF-295 CNS = tested on: SF-295 CNS
SK-MEL-2 melanoma = tested on: SK-MEL-2 melanoma
SK-MEL-28 melanoma = tested on: SK-MEL-28 melanoma
SK-MEL-5 melanoma = tested on: SK-MEL-5 melanoma
SK-OV-3 ovarian = tested on: SK-OV-3 ovarian
SN12C renal = tested on: SN12C renal
SNB-19 CNS = tested on: SNB-19 CNS
SNB-75 CNS = tested on: SNB-75 CNS
SR leukemia = tested on: SR leukemia
SW-620 colon = tested on: SW-620 colon
T-47D breast = tested on: T-47D breast
TK-10 renal = tested on: TK-10 renal
U251 CNS = tested on: U251 CNS
UACC-257 melanoma = tested on: UACC-257 melanoma
UACC-62 melanoma = tested on: UACC-62 melanoma
UO-31 renal = tested on: UO-31 renal

Measured: TGI

OC(c1cc2ccccc2[nH]1)C1(c2cccnc2)SCCCS1 (centres undefined)
82 µM: KM12 colon
> 100 µM: all other assays above
